Results from ChEMBL document CHEMBL1201862, “PubChem BioAssay data set” (2004).
Active and inactive are the calls of the source.

Legend:
[1] = target: Eukaryotic translation initiation factor 4H (Homo sapiens, UniProt Q15056); assay: eIF4H inhibition in translation initiation, SAR follow-up (AID 435011); type: functional
[2] = target: Polyadenylate-binding protein 1 (Homo sapiens, UniProt P11940); assay: PABP inhibition in translation initiation, SAR follow-up (AID 435018); type: functional
Wee1-like protein kinase = Wee1-like protein kinase (Homo sapiens, UniProt P30291); assay: G2/M cell cycle arrest in HeLa, late-stage follow-up, mechanism study for Wee1 degradation inhibitor project, FACS, panel member Wee1 Degradation (AID 2088)
[3] = target: G2/mitotic-specific cyclin-B1 (Homo sapiens, UniProt P14635); assay: G2/M cell cycle arrest in HeLa, late-stage follow-up, mechanism study for Wee1 degradation inhibitor project, FACS, panel member Cyclin B Degradation (AID 2088)
[4] = target: T1, Heat shock factor protein 1 (Mus musculus, UniProt P38532); assay: inhibition of MG132-induced HSE-luciferase signal, confirmation, cell-based, NIH3T3, luminescence, dose retest (AID 2382); type: functional;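 further: NIH3T3 fibroblasts with HSF1-driven luciferase reporter stressed by proteasome inhibitor MG132; luminescence from HSF1-driven luciferase expression after 8 hours of MG132 stress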
T1 sequence (P38532 whole entry): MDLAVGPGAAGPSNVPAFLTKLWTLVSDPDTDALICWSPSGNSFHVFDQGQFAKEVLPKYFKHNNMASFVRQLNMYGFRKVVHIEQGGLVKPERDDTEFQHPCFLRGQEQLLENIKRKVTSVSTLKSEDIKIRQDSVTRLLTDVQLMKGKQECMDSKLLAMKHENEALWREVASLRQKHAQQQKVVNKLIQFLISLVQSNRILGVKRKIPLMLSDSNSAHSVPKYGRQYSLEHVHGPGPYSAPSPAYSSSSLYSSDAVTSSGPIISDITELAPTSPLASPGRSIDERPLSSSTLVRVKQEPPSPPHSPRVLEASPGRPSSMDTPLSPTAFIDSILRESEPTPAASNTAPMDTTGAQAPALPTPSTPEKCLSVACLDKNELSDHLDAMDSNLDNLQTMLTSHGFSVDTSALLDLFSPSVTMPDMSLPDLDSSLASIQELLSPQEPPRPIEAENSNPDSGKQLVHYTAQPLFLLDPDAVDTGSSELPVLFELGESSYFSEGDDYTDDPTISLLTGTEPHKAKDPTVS

[5] = target: Luciferin 4-monooxygenase (Photinus pyralis, UniProt P08659); assay: firefly luciferase enzyme inhibitors, dose response, biochemical, luminescence (AID 1891)
[6] = Luminescence Cell-Based Dose Confirmation HTS to Identify Inhibitors of Platelet Dense Granule Release. [Related pubchem assays: 1663 (Primary HTS), 1678 (Summary of Project)]; type: functional
[7] = inhibition of ADP-Glo detection reagents, dose response, artefact control for CDK5 inhibitor project, biochemical, luminescence, cherry-picked samples, set 2 (AID 504546); type: functional
[8] = target: Cyclin-dependent kinase 5/CDK5 activator 1 (Homo sapiens, UniProt Q00535); assay: CDK5/p35 kinase inhibitors, dose response, biochemical, cherry-picked samples, set 2 (AID 504545)
[9] = cytotoxicity in HEK-293T cells, dose response, cytotoxicity control for TCR NF-kB inhibitor project, luminescence, T-cell screen hits (AID 489026); type: functional, cell-based;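 further: cells exposed to compound about 14 hours before the viability readout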
Paired box protein Pax-8 = Paired box protein Pax-8 (Homo sapiens, UniProt Q06710); assay: inhibitors of PAX8-driven TPO luciferase reporter, dose response, RMG-I cells, cherry-pick (AID 687027); type: functional, cell-based;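 further: luciferase reporter driven by Pax8 target thyroperoxidase promoter measured by SteadyGlo luminescence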
[10] = non-specific cell cytotoxicity, dose response, cytotoxicity control for PAX8 inhibitor project, plate reader, dry powder samples (AID 743021); type: functional, cell-based
[11] = target: Melanin-concentrating hormone receptor 1 (Homo sapiens, UniProt Q99705); assay: Late-stage fluorescence-based counterscreen for antagonists of the G-protein coupled receptor 7 (GPR7): cell-based dose response assay to identify antagonists of the melanin-concentrating hormone receptor 1 (MCHR1). [Related pubchem assays (depositor defined):AID1861, AID1880, AID1952, AID2148, AID2251, AID2257, AID485339]; type: functional;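 further: stimulated with 30 nM MCH peptide agonist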
[12] = target: T2, Neuropeptides B/W receptor type 1 (Homo sapiens, UniProt P48145); assay: GPR7 antagonist potency, late-stage follow-up, cell-based, fluorescence, dose response (AID 463251); type: functional
T2 sequence (P48145 whole entry): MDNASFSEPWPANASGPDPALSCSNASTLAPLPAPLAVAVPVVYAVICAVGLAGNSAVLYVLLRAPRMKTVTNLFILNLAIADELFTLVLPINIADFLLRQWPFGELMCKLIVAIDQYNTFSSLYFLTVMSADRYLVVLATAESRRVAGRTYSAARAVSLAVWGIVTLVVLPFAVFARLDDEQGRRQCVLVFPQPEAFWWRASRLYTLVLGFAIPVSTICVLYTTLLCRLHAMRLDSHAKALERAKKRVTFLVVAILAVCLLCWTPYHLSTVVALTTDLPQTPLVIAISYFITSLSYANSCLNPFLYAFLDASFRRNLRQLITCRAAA

[13] = target: Neurotensin receptor type 1 (Homo sapiens, UniProt P30989); type: functional;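 further: Image-based confirmatory dose-response assay measuring agonist activity at NTR1; NTR1-expressing U2OS osteosarcoma cells imaged for beta-arrestin GFP spot formation; agonist potency where compounds increase beta-arrestin recruitment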
[14] = target: T1, Heat shock factor protein 1; assay: HSF1 potentiators in luciferase reporter cells, confirmation, cell-based, NIH3T3, luminescence, dose retest (AID 435004); type: functional;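 further: stress induced by proteasome inhibitor MG132 added 30 min after compound; luciferase reporter driven by HSF1 response element in NIH3T3 cells; actives raise luminescence as potentiators of the MG132 stress response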
[15] = target: G-protein coupled receptor 35 (Homo sapiens, UniProt Q9HC97); assay: SAR analysis of Antagonists of the GPR35 Receptor using an Image-Based Assay - Set 5. [Related pubchem assays (depositor defined):AID2058, AID2079]; type: functional
[16] = target: G-protein coupled receptor 55 (Homo sapiens, UniProt Q9Y2T6); assay: SAR Analysis of Selective Antagonists of GPR55 using an Image-Based Assay - Set 3. [Related pubchem assays (depositor defined):AID2058, AID2079]; type: functional
[17] = target: Protein phosphatase methylesterase 1 (Homo sapiens, UniProt Q9Y570); assay: PME-1 inhibitor potency by in-gel ABPP, dose response, selectivity assay for PME-1 inhibitor project, cell lysate, mouse brain cytosol, FP-rhodamine, panel member PME-1 Assay Panel member description: Inhibition of endogenously expressed PME-1 (AID 2366)
[18] = target: Potassium voltage-gated channel subfamily KQT member 2 (Rattus norvegicus, UniProt O88943); assay: retigabine-insensitive KCNQ2 potentiators, concentration-response, dose response, cell-based, retigabine-insensitive compounds (AID 2654); type: functional
[19] = target: Voltage-gated N-type calcium channel alpha-1B subunit/Amyloid beta A4 precursor protein-binding family A member 1 (Homo sapiens, UniProt Q00975+Q02410); assay: disruptors of Mint-PDZ/N-type channel peptide interaction – biochemical, HTRF, set 2, SAR follow-up (AID 434980); type: functional
Voltage-gated N-type calcium channel alpha-1B subunit/Amyloid beta A4 precursor protein-binding family A member 1, sequence (Q00975 whole entry): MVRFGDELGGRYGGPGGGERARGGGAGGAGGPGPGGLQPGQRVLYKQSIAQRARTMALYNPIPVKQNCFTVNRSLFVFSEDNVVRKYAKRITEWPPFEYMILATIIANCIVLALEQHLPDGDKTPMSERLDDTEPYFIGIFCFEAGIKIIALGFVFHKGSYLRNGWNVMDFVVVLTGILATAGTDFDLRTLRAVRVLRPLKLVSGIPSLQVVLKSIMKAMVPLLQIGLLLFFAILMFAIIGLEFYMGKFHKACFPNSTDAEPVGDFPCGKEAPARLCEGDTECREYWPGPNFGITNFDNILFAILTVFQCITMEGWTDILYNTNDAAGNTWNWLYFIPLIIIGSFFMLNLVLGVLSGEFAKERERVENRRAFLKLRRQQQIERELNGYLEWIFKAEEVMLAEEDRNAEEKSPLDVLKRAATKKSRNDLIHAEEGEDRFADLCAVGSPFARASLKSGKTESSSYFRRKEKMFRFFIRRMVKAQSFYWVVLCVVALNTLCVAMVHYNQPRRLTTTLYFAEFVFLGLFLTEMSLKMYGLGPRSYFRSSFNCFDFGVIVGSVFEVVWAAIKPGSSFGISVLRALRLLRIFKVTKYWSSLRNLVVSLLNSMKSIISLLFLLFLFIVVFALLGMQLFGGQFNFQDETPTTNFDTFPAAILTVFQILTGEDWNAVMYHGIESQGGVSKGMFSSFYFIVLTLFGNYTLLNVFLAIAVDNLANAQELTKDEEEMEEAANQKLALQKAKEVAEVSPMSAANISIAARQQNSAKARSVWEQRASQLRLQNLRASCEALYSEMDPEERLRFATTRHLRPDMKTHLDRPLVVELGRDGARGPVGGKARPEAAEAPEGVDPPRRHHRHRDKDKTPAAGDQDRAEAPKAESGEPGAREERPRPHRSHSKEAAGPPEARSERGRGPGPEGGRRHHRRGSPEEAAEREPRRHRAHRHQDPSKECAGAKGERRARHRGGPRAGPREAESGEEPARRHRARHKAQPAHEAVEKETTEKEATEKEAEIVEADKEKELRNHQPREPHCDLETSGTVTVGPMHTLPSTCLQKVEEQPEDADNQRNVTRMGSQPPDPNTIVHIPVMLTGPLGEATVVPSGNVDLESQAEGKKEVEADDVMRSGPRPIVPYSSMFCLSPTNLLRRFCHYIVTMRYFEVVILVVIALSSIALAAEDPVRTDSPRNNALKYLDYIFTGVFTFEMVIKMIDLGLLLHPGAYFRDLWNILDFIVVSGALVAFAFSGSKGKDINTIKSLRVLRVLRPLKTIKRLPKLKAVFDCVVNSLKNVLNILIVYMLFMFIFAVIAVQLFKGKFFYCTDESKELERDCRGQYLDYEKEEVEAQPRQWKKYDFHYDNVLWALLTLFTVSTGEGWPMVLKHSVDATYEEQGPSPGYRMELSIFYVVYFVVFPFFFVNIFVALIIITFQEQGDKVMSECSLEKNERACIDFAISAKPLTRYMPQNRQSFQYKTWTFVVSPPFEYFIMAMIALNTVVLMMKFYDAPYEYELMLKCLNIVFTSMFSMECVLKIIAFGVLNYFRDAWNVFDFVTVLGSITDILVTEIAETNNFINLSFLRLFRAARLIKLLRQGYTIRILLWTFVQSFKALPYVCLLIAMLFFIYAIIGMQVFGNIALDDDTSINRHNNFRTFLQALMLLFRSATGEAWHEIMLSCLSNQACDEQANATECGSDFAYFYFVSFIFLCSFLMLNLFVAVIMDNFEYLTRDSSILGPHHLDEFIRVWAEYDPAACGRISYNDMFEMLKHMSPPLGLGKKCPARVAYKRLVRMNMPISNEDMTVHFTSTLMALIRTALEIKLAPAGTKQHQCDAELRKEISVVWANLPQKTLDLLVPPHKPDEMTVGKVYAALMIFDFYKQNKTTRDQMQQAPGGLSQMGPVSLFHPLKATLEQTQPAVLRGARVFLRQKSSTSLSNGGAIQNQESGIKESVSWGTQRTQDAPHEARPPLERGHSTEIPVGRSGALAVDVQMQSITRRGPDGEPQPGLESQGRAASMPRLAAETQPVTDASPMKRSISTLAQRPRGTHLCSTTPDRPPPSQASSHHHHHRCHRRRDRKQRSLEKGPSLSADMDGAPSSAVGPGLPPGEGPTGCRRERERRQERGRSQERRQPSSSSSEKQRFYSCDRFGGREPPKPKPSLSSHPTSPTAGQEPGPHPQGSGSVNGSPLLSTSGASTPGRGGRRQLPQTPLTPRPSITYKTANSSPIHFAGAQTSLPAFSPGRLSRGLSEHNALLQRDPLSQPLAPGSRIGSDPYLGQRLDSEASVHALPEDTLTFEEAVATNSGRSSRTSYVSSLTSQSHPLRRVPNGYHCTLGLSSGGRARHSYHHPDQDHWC
Voltage-gated N-type calcium channel alpha-1B subunit/Amyloid beta A4 precursor protein-binding family A member 1, sequence (Q02410 whole entry): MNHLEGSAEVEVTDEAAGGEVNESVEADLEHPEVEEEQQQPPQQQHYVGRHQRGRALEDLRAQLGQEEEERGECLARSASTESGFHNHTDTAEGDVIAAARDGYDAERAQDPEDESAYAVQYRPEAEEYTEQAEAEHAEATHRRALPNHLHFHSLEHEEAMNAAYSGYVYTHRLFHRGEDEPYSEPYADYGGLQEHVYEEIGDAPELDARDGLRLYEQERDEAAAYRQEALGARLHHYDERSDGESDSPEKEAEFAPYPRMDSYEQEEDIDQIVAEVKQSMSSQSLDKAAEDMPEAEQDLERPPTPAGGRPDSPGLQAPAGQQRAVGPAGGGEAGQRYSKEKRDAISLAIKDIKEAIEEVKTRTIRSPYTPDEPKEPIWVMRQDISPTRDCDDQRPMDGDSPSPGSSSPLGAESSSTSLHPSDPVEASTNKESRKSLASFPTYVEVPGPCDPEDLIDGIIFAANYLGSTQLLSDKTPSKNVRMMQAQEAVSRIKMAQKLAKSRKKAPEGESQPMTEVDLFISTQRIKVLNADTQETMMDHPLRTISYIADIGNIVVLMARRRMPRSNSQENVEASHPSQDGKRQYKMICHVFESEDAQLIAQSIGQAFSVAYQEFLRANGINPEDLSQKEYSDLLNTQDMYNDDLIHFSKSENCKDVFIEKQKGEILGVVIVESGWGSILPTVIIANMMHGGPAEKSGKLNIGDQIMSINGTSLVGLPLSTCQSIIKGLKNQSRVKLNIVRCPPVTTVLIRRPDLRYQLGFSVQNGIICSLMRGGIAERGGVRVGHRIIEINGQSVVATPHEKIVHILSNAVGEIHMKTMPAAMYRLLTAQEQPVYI

Luciferin 4-monooxygenase, sequence (P08659 whole entry): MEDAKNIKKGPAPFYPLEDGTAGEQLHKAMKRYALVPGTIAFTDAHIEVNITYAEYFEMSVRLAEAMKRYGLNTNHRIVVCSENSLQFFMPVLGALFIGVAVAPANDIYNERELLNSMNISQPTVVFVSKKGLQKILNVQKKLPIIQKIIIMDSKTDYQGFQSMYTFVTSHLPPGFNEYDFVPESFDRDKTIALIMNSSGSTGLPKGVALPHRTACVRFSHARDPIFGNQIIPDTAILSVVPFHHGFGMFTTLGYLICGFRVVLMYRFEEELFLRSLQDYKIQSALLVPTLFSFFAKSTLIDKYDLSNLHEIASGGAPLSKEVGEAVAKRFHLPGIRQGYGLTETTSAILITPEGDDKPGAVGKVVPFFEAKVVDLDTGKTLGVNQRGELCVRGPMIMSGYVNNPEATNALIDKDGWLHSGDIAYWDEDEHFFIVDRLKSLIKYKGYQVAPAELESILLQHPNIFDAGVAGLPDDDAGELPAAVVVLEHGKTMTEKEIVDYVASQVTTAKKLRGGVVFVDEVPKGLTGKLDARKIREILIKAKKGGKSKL
Paired box protein Pax-8, sequence (Q06710 whole entry): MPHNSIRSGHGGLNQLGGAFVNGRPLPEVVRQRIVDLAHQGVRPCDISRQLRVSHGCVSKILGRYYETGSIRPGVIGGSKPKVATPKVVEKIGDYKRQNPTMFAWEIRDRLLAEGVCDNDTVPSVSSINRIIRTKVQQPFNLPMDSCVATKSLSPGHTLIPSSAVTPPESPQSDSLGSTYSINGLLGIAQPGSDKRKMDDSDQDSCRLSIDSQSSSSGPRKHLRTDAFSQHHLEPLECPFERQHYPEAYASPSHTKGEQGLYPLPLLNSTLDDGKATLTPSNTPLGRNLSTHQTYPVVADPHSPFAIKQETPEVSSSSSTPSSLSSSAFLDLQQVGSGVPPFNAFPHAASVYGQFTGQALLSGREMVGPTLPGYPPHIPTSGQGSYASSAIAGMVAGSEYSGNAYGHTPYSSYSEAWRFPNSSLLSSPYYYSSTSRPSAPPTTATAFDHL
G-protein coupled receptor 35, sequence (Q9HC97 whole entry): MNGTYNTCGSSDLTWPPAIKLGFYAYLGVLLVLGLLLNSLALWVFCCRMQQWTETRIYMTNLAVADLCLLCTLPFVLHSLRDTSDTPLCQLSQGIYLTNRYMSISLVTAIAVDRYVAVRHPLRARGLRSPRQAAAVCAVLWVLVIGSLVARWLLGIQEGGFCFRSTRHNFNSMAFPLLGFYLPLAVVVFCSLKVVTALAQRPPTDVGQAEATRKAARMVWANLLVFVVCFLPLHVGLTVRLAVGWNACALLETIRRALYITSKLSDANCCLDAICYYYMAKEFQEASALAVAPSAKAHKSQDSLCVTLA
Melanin-concentrating hormone receptor 1, sequence (Q99705 whole entry): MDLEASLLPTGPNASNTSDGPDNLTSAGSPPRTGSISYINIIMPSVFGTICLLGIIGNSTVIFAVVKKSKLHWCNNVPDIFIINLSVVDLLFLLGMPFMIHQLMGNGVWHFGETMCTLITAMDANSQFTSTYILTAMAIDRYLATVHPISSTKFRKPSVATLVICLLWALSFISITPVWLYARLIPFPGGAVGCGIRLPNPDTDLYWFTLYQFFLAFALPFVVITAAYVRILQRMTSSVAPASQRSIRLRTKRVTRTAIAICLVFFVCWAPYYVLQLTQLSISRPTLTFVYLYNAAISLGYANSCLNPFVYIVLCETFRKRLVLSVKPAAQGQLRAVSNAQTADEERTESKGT

In the case of `Cc1nnc(NC(=O)CSc2ccc(-c3ccco3)nn2)s1`, the IC50 [1] is reported as 6.17 µM (active) and the IC50 [2] is reported as 64.1 µM (active).

In the case of `Cc1ccc(OCC(=O)Nc2cc(C)nn2-c2nc(C)cc(O)n2)cc1`, the EC50 (Wee1-like protein kinase) is reported as > 16.6 µM (active) and the EC50 [3] is reported as > 49.7 µM (inactive).

With `COc1ccc(C(=O)NNC(=O)c2ccccn2)cc1` the EC50 [4] was 1.11 µM (active), the EC50 [5] was 0.98 µM (active) and the EC50 [6] was 0.429 µM (active). The AC50 [7] was 14.2 µM (active), the AC50 [8] was 8.77 µM (active) and the IC50 [9] was > 80 µM (inactive). For the same molecule, the AC50 (Paired box protein Pax-8) was 7.51 µM (active) and the AC50 [10] was 15.7 µM (active).

With `COc1nn(-c2cccc(C)c2)c(=O)c(Cl)c1Cl` the IC50 [11] was 3.1 µM (active) and the IC50 [12] was 5.4 µM (active).

For `CC1(C)CC(=O)C(=Cc2cn(-c3ccccc3)nc2-c2ccccc2)C(=O)C1`, the EC50 [13] was 33.9 µM (inactive) and the EC50 [14] was 20.7 µM (active).

In the case of `COC(=O)c1cnn(-c2ccc(F)cc2F)c1/C=N/NC(N)=S`, the EC50 [5] is reported as > 112 µM (not active), the EC50 [6] is reported as > 112 µM (not active) and the IC50 [15] is reported as > 32 µM (inactive). The IC50 [16] was > 32 µM (inactive).

With `CC(C)c1cc(C(C)C)c(S(=O)(=O)n2cccc2/C=C(\C#N)S(C)(=O)=O)c(C(C)C)c1` the IC50 [17] was > 20 µM (inactive).

With `O=C(Nc1cccc(F)c1)Nc1cncc(F)c1` the EC50 [18] was 6.32 µM (active).

In the case of `O=C(c1cc(-c2ccco2)nc2ccccc12)N1CCC(N2CCCC2)CC1`, the IC50 [19] is reported as > 56.8 µM (inactive).
